Results: patent publication US12258354B2, “AhR modulators” (IDEAYA BIOSCIENCES, INC., priority 2018, dated 2025)

The molecules below were run against T1, hAhR (Homo sapiens, UniProt P35869) (assay: DRE-luciferase transcriptional reporter assay in HEPG2 DRE-Luc cells, TCDD-induced (antagonist mode)). Conditions: relative IC50, 3 nM TCDD, 24-hour incubation, firefly luciferase readout.
T1 construct: Stably integrated DRE-luciferase cell lines were generated by transducing the both cell lines with Cignal XRE luciferase reporter; endogenous in cells; host or cells: HEPG2 DRE-Luc cells (only the XRE luciferase reporter was transduced)
T1 sequence (P35869 11-848): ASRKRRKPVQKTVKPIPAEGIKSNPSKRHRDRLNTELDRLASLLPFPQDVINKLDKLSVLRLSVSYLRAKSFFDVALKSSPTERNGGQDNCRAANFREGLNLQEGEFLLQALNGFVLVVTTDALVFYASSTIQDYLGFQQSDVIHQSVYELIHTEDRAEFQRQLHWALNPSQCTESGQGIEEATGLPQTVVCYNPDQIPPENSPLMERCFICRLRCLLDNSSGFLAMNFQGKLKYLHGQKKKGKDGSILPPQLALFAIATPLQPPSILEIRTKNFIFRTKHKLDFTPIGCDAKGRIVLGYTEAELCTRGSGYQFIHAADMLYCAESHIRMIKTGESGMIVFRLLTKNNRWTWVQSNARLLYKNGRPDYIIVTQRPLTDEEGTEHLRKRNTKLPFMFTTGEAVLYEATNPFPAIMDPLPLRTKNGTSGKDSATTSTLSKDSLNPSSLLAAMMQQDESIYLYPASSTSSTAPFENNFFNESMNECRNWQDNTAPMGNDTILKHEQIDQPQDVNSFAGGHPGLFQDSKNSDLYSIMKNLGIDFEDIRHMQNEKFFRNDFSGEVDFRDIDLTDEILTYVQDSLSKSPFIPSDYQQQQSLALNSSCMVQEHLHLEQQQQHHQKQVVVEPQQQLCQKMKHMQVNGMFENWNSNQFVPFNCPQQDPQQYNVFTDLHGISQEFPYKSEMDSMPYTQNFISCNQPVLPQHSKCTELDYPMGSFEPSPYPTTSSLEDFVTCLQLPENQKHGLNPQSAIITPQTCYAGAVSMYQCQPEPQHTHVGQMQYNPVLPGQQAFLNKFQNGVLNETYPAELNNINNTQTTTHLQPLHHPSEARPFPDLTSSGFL
Assay type: cell-based
Procedure: HEPG2 and HEPA1C1C7 cells were maintained in MEM and αMEM without nucleosides supplemented with 10% heat inactivated FBS respectively. Stably integrated DRE-luciferase cell lines were generated by transducing the both cell lines with Cignal XRE luciferase reporter (Qiagen) lentiviral particles according to the manufacturer protocol. For both cell lines stably integrated reporter cell lines were selected for the presence of 2 μg/mL puromycin. Following selection of stably integrated cell line pools, clonal cell lines were isolated by limiting dilution in 96-well plates. Transcriptional assays were performed by seeding 100 μL of cells at a density of 250,000 or 100,000 cells/mL, for HEPG2 and HEPA1C1C7 DRE-Luc cells respectively, into 96-well cell culture plates in OptiMEM supplemented with 0.5% heat inactivated FBS and allowed to attach overnight. For modulator assays, the compounds were added in a semi-log dose response using a D300e Digital Dispenser (Tecan) followed normalization with vehicle (DMSO). Immediately following compound addition 10 μL of 2,3,7,8-Tetrachlorodibenzo-p-dioxin (TCDD) was added to the cells to a final concentration of 3 nM or 0.3 nM for the HEPG2 and HEPA1C1C7 DRE-Luc cells respectively. Following 24-hour incubation, the medium was removed and the cells were lysed in 25 μL of Reporter Lysis Buffer (Promega). Firefly luciferase activity was measured immediately following the addition of 50 μL Luciferase Assay Reagent (Promega). The percent maximal activity for each point was determined using the following equation: (RLUsample−RLUvehicle−TCDD)/(RLUvehicle+TCDD RLUvehicle−TCDD)*100. The relative IC50, defined as the compound concentration required to reduce the TCDD induced response between the top and bottom plateau of each individual dose response curve by half, for each compound was determined using Prism 7 (GraphPad Software).
Cc1cc(N2CCn3ncc(C)c3C2=O)c(C)cc1-c1ccc2cc(C(F)(F)F)ccc2n1 [compound 023, 5-(2,5-dimethyl-4-(6-(trifluoromethyl)quinolin-2-yl)phenyl)-3-methyl-6,7-dihydropyrazolo[1,5-a]pyrazin-4 (5H)-one] showed an IC50 of 1 to 10 µM. For Cc1cc(N2CCn3ncc(C)c3C2=O)c(F)cc1-c1ccc2cc(C(F)(F)F)ccc2n1 [compound 024, 5-(2-fluoro-5-methyl-4-(6-(trifluoromethyl)quinolin-2-yl)phenyl)-3-methyl-6,7-dihydropyrazolo[1,5-a]pyrazin-4 (5H)-one], the IC50 was < 0.2 µM. Cc1cc(N2CCn3ncc(C)c3C2=O)c(F)cc1-c1ncc2cc(C(F)(F)F)ccc2n1 [compound 025, 5-(2-fluoro-5-methyl-4-(6-(trifluoromethyl)quinazolin-2-yl)phenyl)-3-methyl-6,7-dihydropyrazolo[1,5-a]pyrazin-4 (5H)-one] was tested, and the IC50 was < 0.2 µM. Cc1cc(N2CCn3ncc(C)c3C2=O)c(F)cc1-c1ncc2cc(C(F)(F)F)cc(C)c2n1 [compound 026, 5-(2-fluoro-5-methyl-4-(8-methyl-6-(trifluoromethyl)quinazolin-2-yl)phenyl)-3-methyl-6,7-dihydropyrazolo[1,5-a]pyrazin-4 (5H)-one] was tested, and the IC50 was < 0.2 µM. For Cc1cc(-c2ccc3nc(C(F)(F)F)ccc3n2)ccc1N1CCc2cnn(C)c2C1=O [compound 027, 1-methyl-6-(2-methyl-4-(6-(trifluoromethyl)-1,5-naphthyridin-2-yl)phenyl)-1,4,5,6-tetrahydro-7H-pyrazolo[3,4-c]pyridin-7-one], the IC50 was < 0.2 µM. In the case of Cc1cc(-c2ccc3nc(C(F)(F)F)cc(C)c3n2)ccc1N1CCc2cnn(C)c2C1=O [compound 028, 1-methyl-6-(2-methyl-4-(8-methyl-6-(trifluoromethyl)-1,5-naphthyridin-2-yl)phenyl)-1,4,5,6-tetrahydro-7H-pyrazolo[3,4-c]pyridin-7-one], the IC50 is reported as < 0.2 µM. With Cc1cc(-c2ncc3cc(C(F)(F)F)ccc3n2)ccc1N1CCOc2cnn(C)c2C1=O [compound 029, 1-methyl-7-(2-methyl-4-(6-(trifluoromethyl)quinazolin-2-yl)phenyl)-6,7-dihydro-1H-pyrazolo[3,4-f][1,4]oxazepin-8 (5H)-one] the IC50 was < 0.2 µM. Cc1cc(-c2ccc3nc(C(F)(F)F)ccc3n2)ccc1N1CCOc2cnn(C)c2C1=O [compound 030, 1-methyl-7-(2-methyl-4-(6-(trifluoromethyl)-1,5-naphthyridin-2-yl)phenyl)-6,7-dihydro-1H-pyrazolo[3,4-f][1,4]oxazepin-8 (5H)-one] was tested, and the IC50 was < 0.2 µM. With Cc1cc(-c2ccc3nc(C(F)(F)F)cc(C)c3n2)ccc1N1CCOc2cnn(C)c2C1=O [compound 031, 1-methyl-7-(2-methyl-4-(8-methyl-6-(trifluoromethyl)-1,5-naphthyridin-2-yl)phenyl)-6,7-dihydro-1H-pyrazolo[3,4-f][1,4]oxazepin-8 (5H)-one] the IC50 was < 0.2 µM. Cc1cc(N2CCOc3cnn(C)c3C2=O)c(C)cc1-c1ccc2nc(C(F)(F)F)ccc2n1 [compound 032, 7-(2,5-dimethyl-4-(6-(trifluoromethyl)-1,5-naphthyridin-2-yl)phenyl)-1-methyl-6,7-dihydro-1H-pyrazolo[3,4-f][1,4]oxazepin-8 (5H)-one] showed an IC50 of 1 to 10 µM. For Cc1cc(-c2ncc3cc(C(F)(F)F)ccc3n2)ccc1N1CCOc2cn[nH]c2C1=O [compound 033], the IC50 was < 0.2 µM. Cc1cc(-c2ncc3cc(C(F)(F)F)ccc3n2)ccc1N1CCOc2cn(CC#N)nc2C1=O [compound 035, 2-(7-(2-methyl-4-(6-(trifluoromethyl)quinazolin-2-yl)phenyl)-8-oxo-5,6,7,8-tetrahydro-2H-pyrazolo[3,4-f][1,4]oxazepin-2-yl)acetonitrile] was tested, and the IC50 was < 0.2 µM. With Cc1cc(-c2ncc3cc(C(F)(F)F)ccc3n2)ccc1N1CCOc2cnn(CC#N)c2C1=O [compound 036, 2-(7-(2-methyl-4-(6-(trifluoromethyl)quinazolin-2-yl)phenyl)-8-oxo-5,6,7,8-tetrahydro-1H-pyrazolo[3,4-f][1,4]oxazepin-1-yl)acetonitrile] the IC50 was < 0.2 µM. In the case of Cc1cc(-c2ncc3cc(C(F)(F)F)ccc3n2)ccc1N1CCOc2cn(CCO)nc2C1=O [compound 037, 2-(2-hydroxyethyl)-7-(2-methyl-4-(6-(trifluoromethyl)quinazolin-2-yl)phenyl)-6,7-dihydro-2H-pyrazolo[3,4-f][1,4]oxazepin-8 (5H)-one], the IC50 is reported as < 0.2 µM. For Cc1cc(-c2ncc3nc(C(F)(F)F)ccc3n2)ccc1N1CCOc2cn[nH]c2C1=O [compound 038, 7-(2-methyl-4-(6-(trifluoromethyl)pyrido[3,2-d]pyrimidin-2-yl)phenyl)-6,7-dihydro-1H-pyrazolo[3,4-f][1,4]oxazepin-8 (5H)-one], the IC50 was < 0.2 µM. Work on Cc1cc(-c2ncc3nc(C(F)(F)F)ccc3n2)ccc1N1CCOc2nn[nH]c2C1=O [compound 040, 7-[2-methyl-4-[6-(trifluoromethyl)pyrido[3,2-d]pyrimidin-2-yl]phenyl]-1H,5H,6H,7H,8H-[1,2,3]triazolo[4,5-f][1,4]oxazepin-8-one] yielded an IC50 of 1 to 10 µM. In the case of Cc1cc(-c2ncc3nc(C(F)(F)F)ccc3n2)ccc1N1CCOc2nn(C)nc2C1=O [compound 042, 2-methyl-7-(2-methyl-4-(6-(trifluoromethyl)pyrido[3,2-d]pyrimidin-2-yl)phenyl)-6,7-dihydro-2H-[1,2,3]triazolo[4,5-f][1,4]oxazepin-8 (5H)-one], the IC50 is reported as 0.2 to 0.5 µM. Cc1cc(-c2ncc3cc(C(F)(F)F)ccc3n2)ccc1N1CCOc2nn(C)nc2C1=O [compound 043, 2-methyl-7-(2-methyl-4-(6-(trifluoromethyl)quinazolin-2-yl)phenyl)-6,7-dihydro-2H-[1,2,3]triazolo[4,5-f][1,4]oxazepin-8 (5H)-one] showed an IC50 of 1 to 10 µM. Cc1cc(-c2ncc3cc(C(F)(F)F)ccc3n2)ccc1N1C(=O)c2[nH]ncc2OCC1C (stereo not drawn) [compound 044, 6-methyl-7-(2-methyl-4-(6-(trifluoromethyl)quinazolin-2-yl)phenyl)-6,7-dihydro-1H-pyrazolo[3,4-f][1,4]oxazepin-8 (5H)-one] was tested, and the IC50 was < 0.2 µM. With Cc1cc(-c2ccc3nc(C(F)(F)F)ccc3n2)ccc1N1C(=O)c2[nH]ncc2OCC1C (stereo not drawn) [compound 045, 6-methyl-7-(2-methyl-4-(6-(trifluoromethyl)-1,5-naphthyridin-2-yl)phenyl)-6,7-dihydro-1H-pyrazolo[3,4-f][1,4]oxazepin-8 (5H)-one] the IC50 was < 0.2 µM. With Cc1cc(-c2ncc3nc(C(F)(F)F)ccc3n2)ccc1N1C(=O)c2[nH]ncc2OCC1C (stereo not drawn) [compound 046, 6-methyl-7-(2-methyl-4-(6-(trifluoromethyl)pyrido[3,2-d]pyrimidin-2-yl)phenyl)-6,7-dihydro-1H-pyrazolo[3,4-f][1,4]oxazepin-8 (5H)-one] the IC50 was < 0.2 µM. Cc1cc(-c2ncc3nc(C(F)(F)F)ccc3n2)ccc1N1CCOc2cn(C)nc2C1=O [compound 047, 2-methyl-7-(2-methyl-4-(6-(trifluoromethyl)pyrido[3,2-d]pyrimidin-2-yl)phenyl)-6,7-dihydro-2H-pyrazolo[3,4-f][1,4]oxazepin-8 (5H)-one] was tested, and the IC50 was < 0.2 µM. In the case of Cc1cc(-c2ccc3nc(C(F)(F)F)ccc3n2)ccc1N1CCOc2cn(C)nc2C1=O [compound 048, 2-methyl-7-(2-methyl-4-(6-(trifluoromethyl)-1,5-naphthyridin-2-yl)phenyl)-6,7-dihydro-2H-pyrazolo[3,4-f][1,4]oxazepin-8 (5H)-one], the IC50 is reported as < 0.2 µM. Cc1cc(-c2ncc3nc(C(F)(F)F)ccc3n2)ccc1N1CCOc2cnn(C)c2C1 [compound 049, 1-methyl-7-(2-methyl-4-(6-(trifluoromethyl)pyrido[3,2-d]pyrimidin-2-yl)phenyl)-5,6,7,8-tetrahydro-1H-pyrazolo[3,4-f][1,4]oxazepine] was tested, and the IC50 was < 0.2 µM.
